In brackets after ≈: the same amount, converted by molar mass. Several values for one entry are separate records, joined by “and”; a condition that tells them apart may be missing. Equal entries are not always repeated. Where two headings read alike, the source gives them in different places.
What was measured:
[1] = tested on: A2780 human ovarian carcinoma cell line; assay: Cytotoxicity (growth inhibition) on A2780 cells with or without BSO pretreatment; format: cell-based
Description: (§1) Further evidence of the relevance of GSH levels for the cytotoxicity of the compounds of formula (I) has been obtained by determining the influence of prior treatment with BSO (L-S.R buthionine sulphoximine) on the susceptibility of A2780 human ovarian cells to their cytotoxic and apoptotic effect.
(§2) The cytotoxic activity was determined on A2780 human ovarian carcinoma cell line.
(§3) The cytotoxic activity was determined against exponentially growing cells. A2780 cells were seeded in 6 well-plates at concentration of 100,000 cells/ml for 2 ml and incubated for 24 h with the GSH inhibitor BSO and finally exposed to different concentrations of PNU 166196 (untreated cells were incubated with the medium only).
(§4) After 24 h treatment with the drug, cell growth inhibition was evaluated on the monolayer cells whereas the floating cells were used for morphology evaluation.

[2] = tested on: A2780 human ovarian carcinoma cell line; assay: Apoptotic effect (cells with apoptotic morphology, fluorescence microscopy) on A2780 cells with or without BSO pretreatment; format: cell-based
Description: as §1, §2, §3, §4
Apoptosis was evaluated by fluorescence microscopy. At the end of the treatment, floating cells were collected, washed in PBS, fixed in 70% ice-cold ethanol and stored at −20° C. until analysis (5 days max.). Cells were then centrifuged and the pellets were stained with 50 μg/ml propidium iodide, 0.001% Nonidet P40 and 60 U/ml Rnase and stored in the dark for 30 minutes at 37° C. Cells were centrifuged and the pellets were resuspended in […]. At least 600 cells randomly chosen from 2 smears independently prepared were examined for their nuclear morphology changes (chromatin condensation and DNA fragmentation) using a fluorescence microscope [see Int. J. Cancer 65:491–497 (1996)]. All the experiments were carried out twice. Results are reported per the enclosed table II and comments thereof.

[3] = tested on: L1210/L-PAM cells (melphalan resistant murine leukemia, high GSH); assay: cells; settings: for IC50: Mus musculus, L1210/LPAM, 48 h, read-out: Cytotoxicity IC50; for Cytotoxicity on L1210/L-PAM cells in respect to L1210 cells: comparison of IC50 on the two cell lines
Description: The cytotoxic activity was determined on L1210 murine lymphocytic leukemia cell line and on the L-PAM resistant cell subline L1210/L-PAM. Cells were grown in vitro as stabilized suspension cultures.L1210 cells were maintained in RPMI 1640 medium containing β-mercaptoethanol (10 μM). L1210/L-PAM cells were maintained in RPMI 1640 medium containing β-mercaptoethanol (50 μM). All culture media (Biowhittaker, UK) were supplemented with 10% Fetal Calf Serum (Biological Industries, Israel) and 2 mM L-glutamine (Biowhittaker, UK).
The cytotoxic activity was determined against exponentially growing cells. L1210 and L1210/L-PAM cells were seeded in 24 well-plates at concentration of 50,000 cells/ml and immediately treated for 48 h with the drug.
The inhibition of cell growth was evaluated by counting surviving cells with a Coulter Counter. The antiproliferative activity of drugs was calculated from dose-response curves and expressed as IC50 (concentration inhibiting 50% cell growth in treated cultures relative to untreated controls). All the experiments were carried out twice.

[4] = tested on: L1210 murine lymphocytic leukemia cell line; assay: Cytotoxic activity (cell growth inhibition, counting surviving cells) on L1210; format: cell-based; settings: Mus musculus, read-out: Cytotoxicity IC50
Description: The cytotoxic activity was determined against exponentially growing cells.
All the experiments were carried out twice.

[5] = A2780, BSO alone (dose printed MM)
[6] = L1210 cells (GSH 7.7 nmole/10^6 cells), 48 h incubation

## CCCCS(=N)(=O)CCC(N)C(=O)O [BSO, L-S.R buthionine sulphoximine, reference compound]
[1]; [5]
  Growth inhibition %: 2.5 ± 0.2%
[2]; [5]
  Apoptosis %: 0%

## N[C@@H](Cc1ccc(N(CCCl)CCCl)cc1)C(=O)O [L-PAM, melphalan]
[3]
  IC50: 8.1 µg/mL (≈ 26.5 µM)
  Cytotoxicity on L1210/L-PAM cells in respect to L1210 cells: lower
[4]; L1210, 48 h
  IC50: 1.65 µg/mL (≈ 5.41 µM)

## C=C(Br)C(=O)Nc1cc(C(=O)Nc2cc(C(=O)Nc3cc(C(=O)Nc4cc(C(=O)NCCC(=N)N)n(C)c4)n(C)c3)n(C)c2)n(C)c1.Cl [PNU 151807, N-(5-{[(5-{[(5-{[(3-amino-3-iminopropyl)amino]carbonyl}-1-methyl-1H-pyrrol-3-yl)amino]carbonyl}-1-methyl-1H-pyrrol-3-yl)amino]carbonyl}-1-methyl-1H-pyrrol-3-yl)-4-[(2-bromoacryloyl)amino]-1-methyl-1H-pyrrole-2-carboxamide hydrochloride]
[3]
  IC50: 0.00026 µg/mL
[4]; [6]
  IC50: 0.00086 µg/mL

## C=C(Br)C(=O)Nc1cc(C(=O)Nc2cc(C(=O)Nc3cc(C(=O)Nc4cc(C(=O)NCCNC(=N)N)n(C)c4)n(C)c3)n(C)c2)n(C)c1.Cl [PNU 166196, N-(5-{[(5-{[(5-{[(2-{[amino(imino)methyl]amino}ethyl)amino]carbonyl}-1-methyl-1H-pyrrol-3-yl)amino]carbonyl}-1-methyl-1H-pyrrol-3-yl)amino]carbonyl}-1-methyl-1H-pyrrol-3-yl)-4-[(2-bromoacryloyl)amino]-1-methyl-1H-pyrrole-2-carboxamide hydrochloride]
[1]; A2780
  Cytotoxicity (percentage of growth inhibition) in BSO pretreated cells in respect to BSO-untreated ones: significantly decreased
[1]; Homo sapiens, A2780, A2780, 300 ng/ml, no BSO
  inhibition at 0.3 µg/mL: 43 ± 2.5%
[1]; Homo sapiens, A2780, A2780, 1000 ng/ml, no BSO
  inhibition at 1 µg/mL: 64.5 ± 14.5%
[1]; Homo sapiens, A2780, read-out: Growth inhibition %, A2780, 3000 ng/ml, BSO 0.1 mM 24 h before and during treatment
  inhibition at 3 µg/mL: 38%
[1]; Homo sapiens, A2780, read-out: Growth inhibition %, A2780, 3000 ng/ml, no BSO
  inhibition at 3 µg/mL: 77.5%
[2]; A2780
  Apoptotic effect (percentage of cells with apoptotic morphology) in BSO pretreated cells in respect to BSO-untreated ones: significantly decreased
[2]; A2780, 300 ng/ml, no BSO
  Apoptosis %: 17.5 ± 6.5%
[2]; A2780, 1000 ng/ml, no BSO
  Apoptosis %: 49.5 ± 15.5%
[2]; A2780, 3000 ng/ml, BSO 0.1 mM 24 h before and during treatment
  Apoptosis %: 11.5%
[2]; A2780, 3000 ng/ml, no BSO, hydrochloride
  Apoptosis %: 74.5% and 74.5 ± 15.5%
[3]
  IC50: 0.00049 µg/mL
[4]; [6]
  IC50: 0.00162 µg/mL

## Cn1cc(NC(=O)c2cc(NC(=O)c3cc(NC(=O)c4ccc(N(CCCl)CCCl)cc4)cn3C)cn2C)cc1C(=O)NCCC(=N)N [Tallimustine, 3-[1-methyl-4-[1-methyl-4-[1-methyl-4-[1-methyl-4-[N,N-bis(2-chloroethyl)amino]benzenecarboxamindo]pyrrole-2-carboxamido]pyrrole-2-carboxamido]pyrrole-2-carboxamido]propionamidine]
[3]
  IC50: 0.0274 µg/mL (≈ 0.0393 µM)
  Cytotoxicity on L1210/L-PAM cells in respect to L1210 cells: comparable
[4]; L1210, 48 h
  IC50: 0.0225 µg/mL (≈ 0.0323 µM)

From US7030089B2 (priority 2000, dated 2006)
